What was measured:
[1] = target: T1, HCV polymerase (NS5B) type 1b (Hepatitis C virus genotype 1b, UniProt P26663); experiment: Assay of enzyme (HCV polymerase) inhibitory activity, type 1b enzyme; format: biochemical, HCV BK strain (type 1b); conditions: HCV polymerase inhibitory activity IC50, 1b, type 1b enzyme
T1 construct: a region encoding NS5B (J Virol 1991 March, 65(3), 1105-13, 544 amino acids after deletion of 47 amino acids on the C-terminal); 6xHis (C); made in house; host or cells: Escherichia coli
Procedure, shortened: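 NS5B from HCV BK strain (type 1b), C-terminal 47 aa deleted, C-terminal His6-tagged, E. coli-expressed, 0.5 μg/ml, with ~450 nt substrate RNA carrying the 3′ UTR (polyU, 3′X) at 5 μg/ml. Incubation 60 min at 25 °C with 50 μM ATP/GTP/CTP, 2 μM UTP plus [3H]UTP, pH 7.5 Tris.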

[2] = target: T2, HCV polymerase (NS5B) type 1a (Hepatitis C virus genotype 1a, UniProt P26664); experiment: Assay of enzyme (HCV polymerase) inhibitory activity, type 1a enzyme; format: biochemical, HCV type 1a (cloned from the blood of patients); conditions: HCV polymerase inhibitory activity IC50, 1a, type 1a enzyme
T2 construct: made in house; host or cells: Escherichia coli (by the 'similar method' of the 1b enzyme)
Procedure, shortened: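 Patient-derived type 1a NS5B (C-terminal 47-aa deletion, His-tagged, E. coli-expressed) at 1.5 μg/ml was reacted with 5 μg/ml 3′UTR-containing substrate RNA, 50 μM ATP/GTP/CTP, 2 μM UTP plus [3H]UTP, pH 7.5, 25° C for 60 min. TCA-precipitated RNA radioactivity was counted; IC50 from ± compound.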

Structure (SMILES)	IC50 [1]	IC50 [2]
O=C(NCc1ccc(OC(F)(F)F)cc1)[C@H]1CN(c2nc3nc(C4CC4)ncc3s2)CCN1S(=O)(=O)c1ccc(OC(F)(F)F)cc1 [Example 975, (R)-4-(5-cyclopropyl-thiazolo[4,5-d]pyrimidin-2-yl)-1-(4-trifluoromethoxy-benzenesulfonyl)-piperazine-2-carboxylic acid 4-trifluoromethoxy-benzylamide]	< 100 nM	< 100 nM
O=C(NCc1ccc(C2CC2)cc1)[C@H]1CN(c2nc3ncncc3s2)CCN1S(=O)(=O)c1ccc(OC(F)(F)F)cc1 [Example 976, (R)-4-thiazolo[4,5-d]pyrimidin-2-yl-1-(4-trifluoromethoxy-benzenesulfonyl)-piperazine-2-carboxylic acid 4-cyclopropyl-benzylamide]	< 100 nM	< 100 nM
O=C(NCc1ccc(OC(F)(F)F)cc1)[C@H]1CN(c2nn3ccc(=O)nc3s2)CCN1S(=O)(=O)c1ccc(OC(F)(F)F)cc1 [Example 977, (R)-4-(7-oxo-7H-[1,3,4]thiadiazolo[3,2-a]pyrimidin-2-yl)-1-(4-trifluoromethoxy-benzenesulfonyl)-piperazine-2-carboxylic acid 4-trifluoromethoxy-benzylamide]	< 100 nM	< 100 nM
CC(=O)c1sc(N2CCN(S(=O)(=O)c3ccc(OC(F)(F)F)cc3)[C@@H](C(=O)NCc3ccc(OC(F)(F)F)cc3)C2)nc1C [Example 978, (R)-4-(5-acetyl-4-methyl-thiazol-2-yl)-1-(4-trifluoromethoxy-benzenesulfonyl)-piperazine-2-carboxylic acid 4-trifluoromethoxy-benzylamide]	< 100 nM	< 100 nM
NC(=O)c1ncc2sc(N3CCN(S(=O)(=O)c4ccc(OC(F)(F)F)cc4)[C@@H](C(=O)NCc4ccc(OC(F)(F)F)cc4)C3)nc2n1 [Example 979, 2-[(R)-4-(4-trifluoromethoxy-benzenesulfonyl)-3-(4-trifluoromethoxy-benzylcarbamoyl)-piperazin-1-yl]-thiazolo[4,5-d]pyrimidine-5-carboxylic acid amide]	< 100 nM	< 100 nM
Cc1nn(C)c2nc(N3CCN(S(=O)(=O)c4ccc(OC(F)(F)F)cc4)[C@@H](C(=O)NCc4ccc(OC(F)(F)F)cc4)C3)sc12 [Example 980, (R)-4-(1,3-dimethyl-1H-pyrazolo[3,4-d]thiazol-5-yl)-1-(4-trifluoromethoxy-benzenesulfonyl)-piperazine-2-carboxylic acid 4-trifluoromethoxy-benzylamide]	< 100 nM	< 100 nM
O=C(NCc1ccc(OC(F)(F)F)cc1)[C@H]1CN(c2nc3nc(C(F)(F)F)ncc3s2)CCN1S(=O)(=O)c1ccc(C(F)(F)F)cc1 [Example 981, (R)-1-(4-trifluoromethyl-benzenesulfonyl)-4-(5-trifluoromethyl-thiazolo[4,5-d]pyrimidin-2-yl)-piperazine-2-carboxylic acid 4-trifluoromethoxy-benzylamide]	< 100 nM	< 100 nM
Cc1nc(N)c2sc(N3CCN(S(=O)(=O)c4ccc(OC(F)(F)F)cc4)[C@@H](C(=O)NCc4ccc(OC(F)(F)F)cc4)C3)nc2n1 [Example 982, (R)-4-(7-amino-5-methyl-thiazolo[4,5-d]pyrimidin-2-yl)-1-(4-trifluoromethoxy-benzenesulfonyl)-piperazine-2-carboxylic acid 4-trifluoromethoxy-benzylamide]	< 100 nM	< 100 nM
O=C(NCc1ccc(OC(F)(F)F)cc1)[C@H]1CN(c2nc3nc(C4CC4)ncc3s2)CCN1S(=O)(=O)c1ccc(C(F)(F)F)cc1 [Example 983, (R)-4-(5-cyclopropyl-thiazolo[4,5-d]pyrimidin-2-yl)-1-(4-trifluoromethyl-benzenesulfonyl)-piperazine-2-carboxylic acid 4-trifluoromethoxy-benzylamide]	< 100 nM	< 100 nM
CC(C)c1ncc2sc(N3CCN(S(=O)(=O)c4ccc(OC(F)(F)F)cc4)[C@@H](C(=O)NCc4ccc(OC(F)(F)F)cc4)C3)nc2n1 [Example 984, (R)-4-(5-isopropyl-thiazolo[4,5-d]pyrimidin-2-yl)-1-(4-trifluoromethoxy-benzenesulfonyl)-piperazine-2-carboxylic acid 4-trifluoromethoxy-benzylamide]	< 100 nM	< 100 nM
O=C(NCc1ccc(OC(F)(F)F)cc1)[C@H]1CN(c2nc3c(Cl)nncc3s2)CCN1S(=O)(=O)c1ccc(OC(F)(F)F)cc1 [Example 985, (R)-4-(4-chloro-thiazolo[4,5-d]pyridazin-2-yl)-1-(4-trifluoromethoxy-benzenesulfonyl)-piperazine-2-carboxylic acid 4-trifluoromethoxy-benzylamide]	< 100 nM	< 100 nM
Cc1nnc2sc(N3CCN(S(=O)(=O)c4ccc(OC(F)(F)F)cc4)[C@@H](C(=O)NCc4ccc(OC(F)(F)F)cc4)C3)nn2c1=O [Example 986, (R)-4-(3-methyl-4-oxo-4H-[1,3,4]thiadiazolo[2,3-c][1,2,4]triazin-7-yl)-1-(4-trifluoromethoxy-benzenesulfonyl)-piperazine-2-carboxylic acid 4-trifluoromethoxy-benzylamide]	< 100 nM	< 100 nM
O=C(NCc1ccc(OC(F)(F)F)cc1)[C@H]1CN(c2nc3nnncc3s2)CCN1S(=O)(=O)c1ccc(OC(F)(F)F)cc1 [Example 987, (R)-4-thiazolo[4,5-d][1,2,3]triazin-6-yl-1-(4-trifluoromethoxy-benzenesulfonyl)-piperazine-2-carboxylic acid 4-trifluoromethoxy-benzylamide]	< 100 nM	< 100 nM
O=C(CC(=O)N1CCN(S(=O)(=O)c2ccc(OC(F)(F)F)cc2)[C@@H](C(=O)NCc2ccc(OC(F)(F)F)cc2)C1)Nc1nnc(Br)s1 [Example 988, (R)-4-[2-(5-bromo-[1,3,4]thiadiazol-2-ylcarbamoyl)-acetyl]-1-(4-trifluoromethoxy-benzenesulfonyl)-piperazine-2-carboxylic acid 4-trifluoromethoxy-benzylamide]	> 1000 nM	> 1000 nM
O=C(NCc1cc2ccccn2c1)[C@H]1CN(c2nc3ncncc3s2)CCN1S(=O)(=O)c1ccc(OC(F)(F)F)cc1 [Example 989, (R)-4-thiazolo[4,5-d]pyrimidin-2-yl-1-(4-trifluoromethoxy-benzenesulfonyl)-piperazine-2-carboxylic acid (indolizin-2-ylmethyl)-amide]	< 100 nM	< 100 nM
CNC(=O)c1cc(=O)nc2sc(N3CCN(S(=O)(=O)c4ccc(OC(F)(F)F)cc4)[C@@H](C(=O)NCc4ccc(OC(F)(F)F)cc4)C3)nn12 [Example 990, 7-oxo-2-[(R)-4-(4-trifluoromethoxy-benzenesulfonyl)-3-(4-trifluoromethoxy-benzylcarbamoyl)-piperazin-1-yl]-7H-[1,3,4]thiadiazolo[3,2-a]pyrimidine-5-carboxylic acid methylamide]	< 100 nM	< 100 nM
CC(C)c1ncc2sc(N3CCN(S(=O)(=O)c4ccc(C(F)(F)F)cc4)[C@@H](C(=O)NCc4ccc(OC(F)(F)F)cc4)C3)nc2n1 [Example 991, (R)-4-(5-isopropyl-thiazolo[4,5-d]pyrimidin-2-yl)-1-(4-trifluoromethyl-benzenesulfonyl)-piperazine-2-carboxylic acid 4-trifluoromethoxy-benzylamide]	< 100 nM	< 100 nM

From patent publication US8017612B2, “Piperazine compound and use thereof as a HCV polymerase inhibitor” (priority 2006, dated 2011)
